Assay results from ChEMBL document CHEMBL1152080, “Linear sesterterpenes from the Caribbean sponge Thorecta horridus with inflammatory activity” (1991).

Legend:
Assay type in all cases: functional
Rattus norvegicus [1] = organism: Rattus norvegicus; assay: Percent release of histamine from rat peritoneal cells was determined at 10 ug/mL concentration of compound
Rattus norvegicus [2] = organism: Rattus norvegicus; assay: Percent release of histamine from rat peritoneal cells was determined at 1 ug/mL concentration of compound
Rattus norvegicus [3] = organism: Rattus norvegicus; assay: Percent release of histamine from rat peritoneal cells was determined at 0.1 ug/mL concentration of compound
Rattus norvegicus [4] = assay: Compound was evaluated in vivo for its inflammatory activity in rat paw pretreated with mepyramine (2.5 mg/kg) and methysergide (3 mg/Kg)after administration of compound (1 mg) and percent edema was reported

## CC(C)=CCC/C(C)=C/CC/C(C)=C/CC/C(C)=C/CCC1=CC(=O)OC1
Rattus norvegicus [1]
  Histamine release: 30%
Rattus norvegicus [2]
  Histamine release: 11%
Rattus norvegicus [3]
  Histamine release: 4%
Rattus norvegicus [4]
  Supression: 65%
